ChEMBL document CHEMBL5131391, “One-pot three-component synthesis of novel pyrazolo[3,4-b]pyridines as potent antileukemic agents” (Eur J Med Chem, 2022)

Experiments:
Assay type in all cases: functional
K562 [1] = assay: Antiproliferative activity against human K562 cells assessed as reduction in cell viability incubated for 72 hrs by resazurin dye based assay; settings: K562, 72 h
CAKI-1 = assay: Antiproliferative activity against human CAKI-1 cells assessed as growth inhibition at 10 uM measured after 48 hrs by NCI protocol based SRB assay relative to control; settings: read-out: GI
NCI-H226 = assay: Antiproliferative activity against human NCI-H226 cells assessed as growth inhibition at 10 uM measured after 48 hrs by NCI protocol based SRB assay relative to control; settings: read-out: GI
M14 = assay: Antiproliferative activity against human M14 cells assessed as growth inhibition at 10 uM measured after 48 hrs by NCI protocol based SRB assay relative to control; settings: read-out: GI
NCI/ADR-RES = assay: Antiproliferative activity against human NCl/ADR-RES cells assessed as growth inhibition at 10 uM measured after 48 hrs by NCI protocol based SRB assay relative to control; settings: read-out: GI
NCI-H522 = assay: Antiproliferative activity against human NCI-H522 cells assessed as growth inhibition at 10 uM measured after 48 hrs by NCI protocol based SRB assay relative to control; settings: read-out: GI
U-251 = assay: Antiproliferative activity against human U-251 cells assessed as growth inhibition at 10 uM measured after 48 hrs by NCI protocol based SRB assay relative to control; settings: read-out: GI
TK-10 = assay: Antiproliferative activity against human TK-10 cells assessed as growth inhibition at 10 uM measured after 48 hrs by NCI protocol based SRB assay relative to control; settings: read-out: GI
786-0 = assay: Antiproliferative activity against human 786-0 cells assessed as growth inhibition at 10 uM measured after 48 hrs by NCI protocol based SRB assay relative to control; settings: read-out: GI
COLO 205 = assay: Antiproliferative activity against human COLO 205 cells assessed as growth inhibition at 10 uM measured after 48 hrs by NCI protocol based SRB assay relative to control; settings: read-out: GI
DU-145 = assay: Antiproliferative activity against human DU-145 cells assessed as growth inhibition at 10 uM measured after 48 hrs by NCI protocol based SRB assay relative to control; settings: read-out: GI
MOLT-4 = assay: Antiproliferative activity against human MOLT-4 cells assessed as growth inhibition at 10 uM measured after 48 hrs by NCI protocol based SRB assay relative to control; settings: read-out: GI
SF-268 = assay: Antiproliferative activity against human SF-268 cells assessed as growth inhibition at 10 uM measured after 48 hrs by NCI protocol based SRB assay relative to control; settings: read-out: GI
BT-549 = assay: Antiproliferative activity against human BT-549 cells assessed as growth inhibition at 10 uM measured after 48 hrs by NCI protocol based SRB assay relative to control; settings: read-out: GI
SF-539 = assay: Antiproliferative activity against human SF-539 cells assessed as growth inhibition at 10 uM measured after 48 hrs by NCI protocol based SRB assay relative to control; settings: read-out: GI
NCI-H322M = assay: Antiproliferative activity against human NCI-H322M cells assessed as growth inhibition at 10 uM measured after 48 hrs by NCI protocol based SRB assay relative to control; settings: read-out: GI
SK-MEL-2 = assay: Antiproliferative activity against human SK-MEL-2 cells assessed as growth inhibition at 10 uM measured after 48 hrs by NCI protocol based SRB assay relative to control; settings: read-out: GI
SK-MEL-5 = assay: Antiproliferative activity against human SK-MEL-5 cells assessed as growth inhibition at 10 uM measured after 48 hrs by NCI protocol based SRB assay relative to control; settings: read-out: GI
HCT-116 = assay: Antiproliferative activity against human HCT-116 cells assessed as growth inhibition at 10 uM measured after 48 hrs by NCI protocol based SRB assay relative to control; settings: read-out: GI
ACHN = assay: Antiproliferative activity against human ACHN cells assessed as growth inhibition at 10 uM measured after 48 hrs by NCI protocol based SRB assay relative to control; settings: read-out: GI
OVCAR-8 = assay: Antiproliferative activity against human OVCAR-8 cells assessed as growth inhibition at 10 uM measured after 48 hrs by NCI protocol based SRB assay relative to control; settings: read-out: GI
CCRF-CEM [2] = assay: Antiproliferative activity against human CCRF-CEM cells assessed as growth inhibition at 10 uM measured after 48 hrs by NCI protocol based SRB assay relative to control; settings: read-out: GI
K562 [3] = assay: Antiproliferative activity against human K562 cells assessed as growth inhibition at 10 uM measured after 48 hrs by NCI protocol based SRB assay relative to control; settings: read-out: GI
T47D = assay: Antiproliferative activity against human T47D cells assessed as growth inhibition at 10 uM measured after 48 hrs by NCI protocol based SRB assay relative to control; settings: read-out: GI
KM12 = assay: Antiproliferative activity against human KM12 cells assessed as growth inhibition at 10 uM measured after 48 hrs by NCI protocol based SRB assay relative to control; settings: read-out: GI
IGROV-1 = assay: Antiproliferative activity against human IGROV-1 cells assessed as growth inhibition at 10 uM measured after 48 hrs by NCI protocol based SRB assay relative to control; settings: read-out: GI
HOP-92 = assay: Antiproliferative activity against human HOP-92 cells assessed as growth inhibition at 10 uM measured after 48 hrs by NCI protocol based SRB assay relative to control; settings: read-out: GI
CCRF-CEM [4] = assay: Antiproliferative activity against human CEM cells assessed as reduction in cell viability incubated for 72 hrs by resazurin dye based assay
SF-295 = assay: Antiproliferative activity against human SF-295 cells assessed as growth inhibition at 10 uM measured after 48 hrs by NCI protocol based SRB assay relative to control; settings: read-out: GI
A549 = assay: Antiproliferative activity against human A549 cells assessed as growth inhibition at 10 uM measured after 48 hrs by NCI protocol based SRB assay relative to control; settings: read-out: GI
SNB-75 = assay: Antiproliferative activity against human SNB-75 cells assessed as growth inhibition at 10 uM measured after 48 hrs by NCI protocol based SRB assay relative to control; settings: read-out: GI
HOP-62 = assay: Antiproliferative activity against human HOP-62 cells assessed as growth inhibition at 10 uM measured after 48 hrs by NCI protocol based SRB assay relative to control; settings: read-out: GI
MCF7 = assay: Antiproliferative activity against human MCF7 cells assessed as growth inhibition at 10 uM measured after 48 hrs by NCI protocol based SRB assay relative to control; settings: read-out: GI
HCT-15 = assay: Antiproliferative activity against human HCT-15 cells assessed as growth inhibition at 10 uM measured after 48 hrs by NCI protocol based SRB assay relative to control; settings: read-out: GI
RXF 393 = assay: Antiproliferative activity against human RXF 393 cells assessed as growth inhibition at 10 uM measured after 48 hrs by NCI protocol based SRB assay relative to control; settings: read-out: GI
MDA-MB-468 = assay: Antiproliferative activity against human MDA-MB-468 cells assessed as growth inhibition at 10 uM measured after 48 hrs by NCI protocol based SRB assay relative to control; settings: read-out: GI
SNB-19 = assay: Antiproliferative activity against human SNB-19 cells assessed as growth inhibition at 10 uM measured after 48 hrs by NCI protocol based SRB assay relative to control; settings: read-out: GI

SMILES	IC50 (K562 [1])	inhibition of growth at 10 µM (CAKI-1)	inhibition of growth at 10 µM (NCI-H226)	inhibition of growth at 10 µM (M14)	inhibition of growth at 10 µM (NCI/ADR-RES)	inhibition of growth at 10 µM (NCI-H522)	inhibition of growth at 10 µM (U-251)	inhibition of growth at 10 µM (TK-10)	inhibition of growth at 10 µM (786-0)	inhibition of growth at 10 µM (COLO 205)	inhibition of growth at 10 µM (DU-145)	inhibition of growth at 10 µM (SF-268)	inhibition of growth at 10 µM (SF-539)	inhibition of growth at 10 µM (NCI-H322M)	inhibition of growth at 10 µM (SK-MEL-5)	inhibition of growth at 10 µM (HCT-116)	inhibition of growth at 10 µM (ACHN)	inhibition of growth at 10 µM (OVCAR-8)	inhibition of growth at 10 µM (CCRF-CEM [2])	inhibition of growth at 10 µM (T47D)	also measured
N#Cc1c(-c2ccco2)nc2c(c(-c3ccccc3)nn2-c2ccccc2)c1-c1ccc(O)cc1	4.2 µM	42%	27%	35%	24%	81%	39%	11%	41%	97%	25%	33%	18%	19%	13%	64%	28%	45%	59%	82%	inhibition of growth at 10 µM (MOLT-4): 91%; inhibition of growth at 10 µM (BT-549): 36%; inhibition of growth at 10 µM (SK-MEL-2): 30%; inhibition of growth at 10 µM (K562 [3]): 85%; inhibition of growth at 10 µM (KM12): 58%; inhibition of growth at 10 µM (IGROV-1): 16%; inhibition of growth at 10 µM (HOP-92): 24%; IC50 (CCRF-CEM [4]): 23.9 µM; inhibition of growth at 10 µM (SF-295): 34%; inhibition of growth at 10 µM (A549): 54%; inhibition of growth at 10 µM (SNB-75): 29%; inhibition of growth at 10 µM (HOP-62): 149%; inhibition of growth at 10 µM (MCF7): 53%; inhibition of growth at 10 µM (HCT-15): 62%
COc1cc(-c2c(C#N)c(-c3ccccc3)nc3c2c(-c2ccccc2)nn3-c2ccccc2)ccc1O	> 50 µM	37%	24%	19%	22%	47%	31%	42%	24%	23%	25%	27%	18%	17%	21%	45%	13%	28%	31%	39%	inhibition of growth at 10 µM (RXF 393): 42%; inhibition of growth at 10 µM (KM12): 35%; inhibition of growth at 10 µM (IGROV-1): 13%; inhibition of growth at 10 µM (HOP-92): 22%; IC50 (CCRF-CEM [4]): > 50 µM; inhibition of growth at 10 µM (A549): 48%; inhibition of growth at 10 µM (MDA-MB-468): 38%; inhibition of growth at 10 µM (SNB-75): 20%; inhibition of growth at 10 µM (HOP-62): 15%; inhibition of growth at 10 µM (MCF7): 53%; inhibition of growth at 10 µM (SNB-19): 24%; inhibition of growth at 10 µM (HCT-15): 30%
